Legend:
human SMG1 enzyme = human SMG1 enzyme (Homo sapiens, UniProt Q96Q15); test: Measurement of SMG1 kinase activity (ADP-Glo Kinase Assay); assay type: biochemical; details: purified human SMG1 enzyme 5 nM, Upf1 peptide substrate, ATP 4 μM; qAC50 synonymous with IC50; read-out: Test Example 1 ADP-Glo IC50
From the text: The SMG1 kinase inhibitory activity of a compound of the present invention or a pharmaceutically acceptable salt thereof can be measured, for example, by the method described below. Using purified human SMG1 protein and a substrate peptide as materials, the kinase activity can be measured by the ADP-Glo Kinase Assay; the SMG1 kinase inhibitory activity of a test substance can be evaluated by comparing the kinase activity in the presence and absence of the test substance.
The reaction was performed by the ADP-Glo Kinase Assay (Promega, catalog number V9102) using a 384-well plate under the conditions of an assay buffer (100 mM HEPES (pH 7.5), 50 mM NaCl, 10 mM MnCl2, 0.01% BSA, 0.1% Tween 20.5 mM TCEP). After incubating a test substance (DMSO solution; final DMSO concentration: 1%) and purified human SMG1 enzyme (Genes Dev. 2011 Jan. 15; 25(2): 153-164, produced by Daiichi Sankyo RD Novare Co., Ltd.; final concentration: 5 nM) at room temperature for 15 minutes, a substrate, Upf1 peptide (Biotin-(PEG8) QIDVALSQDSTYQG, produced by Eurofins genomics; final concentration: 8 μg/mL), and ATP (Promega: 4 μM) were added, and the mixture was reacted at room temperature for 60 minutes (see Non-Patent Literature R. Melero, et al., Structure Volume 22, Issue 8, 5 Aug. 2014, Pages 1105-1119 for the Upf1 peptide). ADP-Glo Reagent was added, and the mixture was reacted at room temperature for 40 minutes. Kinase Detection Reagent was added, and the mixture was reacted for another 30 minutes. The luminescence intensity was measured using EnVision (PerkinElmer).
The activity value (%) of the test substance-added well was calculated from the following formula, where the average luminescence intensity of the DMSO-added well was 0% and the average luminescence intensity of the SMG1 enzyme-free well was −100%.
The qAC50 (compound concentration showing 50% inhibition, synonymous with IC50) of the test substance was calculated using the activity value (%) at each concentration by Smart fit of Screener (Genedata). Smart fit is a general 4-parameter logistic regression model.

[1] = tested on: Snhg1 transcript (NMD target gene) in EMT6 murine breast cancer cell line; test: Measurement of NMD inhibitory activity in cells (increase in Snhg1 transcript, real-time PCR); parameters: species or system mouse; details: Mus musculus, 6 hours treatment, concentration giving 1/2 of maximum Snhg1 fold change of positive control, read-out: Test Example 2 Cell-based Snhg1 EC50
Protocol: The NMD inhibitory activity of a compound of the present invention or a pharmaceutically acceptable salt thereof in cells can be measured, for example, by the method described below. EMT6 murine breast cancer cell line is treated with a test substance in vitro for 6 hours, and the increase in the transcript of Snhg1, a known NMD target gene, is quantified as an indicator of NMD inhibition. Quantification is performed by real-time PCR.
NMD inhibitory activity was measured by treating EMT6 murine breast cancer cell line (ATCC) with a test substance and quantifying the increase in the transcript of Snhg1, an NMD target gene (see F. Usui, et al., Scientific Reports volume 9, Article number: 1279 (2019) for the NMD target gene). That is, EMT6 cells were suspended in Waymouth's medium (Gibco, 15% FBS) and seeded in a 96-well plate at 2×10^4 cells/well. The cells were cultured for 1 day. The next day, serially diluted test substance (DMSO solution, final DMSO concentration: 2%) was added. After culturing for 6 hours, the supernatant was removed, and RNA was extracted using the RNeasy 96 kit (QIAGEN, 74182). After synthesizing cDNA using the High Capacity cDNA Reverse Transcription kit (Applied Biosystems, 4368813), the cDNA was mixed with PrimeTime Gene Expression Master Mix (Integrated DNA Technologies) and various probes, and gene expression was quantified using QuantStudio 6 Flex (Thermo Fisher Scientific Inc.). For the probe for the Snhg1 gene, which is an NMD target, Mm.PT.58.44039547 (FAM)(Integrated DNA Technologies) was used, and for the probe for the Tbp gene, which is an endogenous control, Mm00446973_m1 Tbp (VIC-PL) (Applied Biosystems) was used. The relative quantification of Snhg1 transcripts was calculated by the ΔΔCT method, using Thp as an endogenous control and setting the expression level of Snhg1 in untreated wells to 1.
A known NMD inhibitory compound (pyrimidine derivative Example 11i, Bioorg Med Chem Lett. 2012, 22(21), 6636-41) was used as a positive control drug for NMD inhibition. The NMD inhibitory activity of the test substance-added well was calculated as follows: the maximum fold change in Sngh1 expression in the positive control drug-added well relative to that in the untreated well was defined as the maximum NMD inhibitory activity, and the EC50 (compound concentration showing 50%/activity) of the test substance showing a ½-fold change was calculated by the GROWTH function of Microsoft Excel.

Chain of human SMG1 enzyme (Q96Q15 whole entry): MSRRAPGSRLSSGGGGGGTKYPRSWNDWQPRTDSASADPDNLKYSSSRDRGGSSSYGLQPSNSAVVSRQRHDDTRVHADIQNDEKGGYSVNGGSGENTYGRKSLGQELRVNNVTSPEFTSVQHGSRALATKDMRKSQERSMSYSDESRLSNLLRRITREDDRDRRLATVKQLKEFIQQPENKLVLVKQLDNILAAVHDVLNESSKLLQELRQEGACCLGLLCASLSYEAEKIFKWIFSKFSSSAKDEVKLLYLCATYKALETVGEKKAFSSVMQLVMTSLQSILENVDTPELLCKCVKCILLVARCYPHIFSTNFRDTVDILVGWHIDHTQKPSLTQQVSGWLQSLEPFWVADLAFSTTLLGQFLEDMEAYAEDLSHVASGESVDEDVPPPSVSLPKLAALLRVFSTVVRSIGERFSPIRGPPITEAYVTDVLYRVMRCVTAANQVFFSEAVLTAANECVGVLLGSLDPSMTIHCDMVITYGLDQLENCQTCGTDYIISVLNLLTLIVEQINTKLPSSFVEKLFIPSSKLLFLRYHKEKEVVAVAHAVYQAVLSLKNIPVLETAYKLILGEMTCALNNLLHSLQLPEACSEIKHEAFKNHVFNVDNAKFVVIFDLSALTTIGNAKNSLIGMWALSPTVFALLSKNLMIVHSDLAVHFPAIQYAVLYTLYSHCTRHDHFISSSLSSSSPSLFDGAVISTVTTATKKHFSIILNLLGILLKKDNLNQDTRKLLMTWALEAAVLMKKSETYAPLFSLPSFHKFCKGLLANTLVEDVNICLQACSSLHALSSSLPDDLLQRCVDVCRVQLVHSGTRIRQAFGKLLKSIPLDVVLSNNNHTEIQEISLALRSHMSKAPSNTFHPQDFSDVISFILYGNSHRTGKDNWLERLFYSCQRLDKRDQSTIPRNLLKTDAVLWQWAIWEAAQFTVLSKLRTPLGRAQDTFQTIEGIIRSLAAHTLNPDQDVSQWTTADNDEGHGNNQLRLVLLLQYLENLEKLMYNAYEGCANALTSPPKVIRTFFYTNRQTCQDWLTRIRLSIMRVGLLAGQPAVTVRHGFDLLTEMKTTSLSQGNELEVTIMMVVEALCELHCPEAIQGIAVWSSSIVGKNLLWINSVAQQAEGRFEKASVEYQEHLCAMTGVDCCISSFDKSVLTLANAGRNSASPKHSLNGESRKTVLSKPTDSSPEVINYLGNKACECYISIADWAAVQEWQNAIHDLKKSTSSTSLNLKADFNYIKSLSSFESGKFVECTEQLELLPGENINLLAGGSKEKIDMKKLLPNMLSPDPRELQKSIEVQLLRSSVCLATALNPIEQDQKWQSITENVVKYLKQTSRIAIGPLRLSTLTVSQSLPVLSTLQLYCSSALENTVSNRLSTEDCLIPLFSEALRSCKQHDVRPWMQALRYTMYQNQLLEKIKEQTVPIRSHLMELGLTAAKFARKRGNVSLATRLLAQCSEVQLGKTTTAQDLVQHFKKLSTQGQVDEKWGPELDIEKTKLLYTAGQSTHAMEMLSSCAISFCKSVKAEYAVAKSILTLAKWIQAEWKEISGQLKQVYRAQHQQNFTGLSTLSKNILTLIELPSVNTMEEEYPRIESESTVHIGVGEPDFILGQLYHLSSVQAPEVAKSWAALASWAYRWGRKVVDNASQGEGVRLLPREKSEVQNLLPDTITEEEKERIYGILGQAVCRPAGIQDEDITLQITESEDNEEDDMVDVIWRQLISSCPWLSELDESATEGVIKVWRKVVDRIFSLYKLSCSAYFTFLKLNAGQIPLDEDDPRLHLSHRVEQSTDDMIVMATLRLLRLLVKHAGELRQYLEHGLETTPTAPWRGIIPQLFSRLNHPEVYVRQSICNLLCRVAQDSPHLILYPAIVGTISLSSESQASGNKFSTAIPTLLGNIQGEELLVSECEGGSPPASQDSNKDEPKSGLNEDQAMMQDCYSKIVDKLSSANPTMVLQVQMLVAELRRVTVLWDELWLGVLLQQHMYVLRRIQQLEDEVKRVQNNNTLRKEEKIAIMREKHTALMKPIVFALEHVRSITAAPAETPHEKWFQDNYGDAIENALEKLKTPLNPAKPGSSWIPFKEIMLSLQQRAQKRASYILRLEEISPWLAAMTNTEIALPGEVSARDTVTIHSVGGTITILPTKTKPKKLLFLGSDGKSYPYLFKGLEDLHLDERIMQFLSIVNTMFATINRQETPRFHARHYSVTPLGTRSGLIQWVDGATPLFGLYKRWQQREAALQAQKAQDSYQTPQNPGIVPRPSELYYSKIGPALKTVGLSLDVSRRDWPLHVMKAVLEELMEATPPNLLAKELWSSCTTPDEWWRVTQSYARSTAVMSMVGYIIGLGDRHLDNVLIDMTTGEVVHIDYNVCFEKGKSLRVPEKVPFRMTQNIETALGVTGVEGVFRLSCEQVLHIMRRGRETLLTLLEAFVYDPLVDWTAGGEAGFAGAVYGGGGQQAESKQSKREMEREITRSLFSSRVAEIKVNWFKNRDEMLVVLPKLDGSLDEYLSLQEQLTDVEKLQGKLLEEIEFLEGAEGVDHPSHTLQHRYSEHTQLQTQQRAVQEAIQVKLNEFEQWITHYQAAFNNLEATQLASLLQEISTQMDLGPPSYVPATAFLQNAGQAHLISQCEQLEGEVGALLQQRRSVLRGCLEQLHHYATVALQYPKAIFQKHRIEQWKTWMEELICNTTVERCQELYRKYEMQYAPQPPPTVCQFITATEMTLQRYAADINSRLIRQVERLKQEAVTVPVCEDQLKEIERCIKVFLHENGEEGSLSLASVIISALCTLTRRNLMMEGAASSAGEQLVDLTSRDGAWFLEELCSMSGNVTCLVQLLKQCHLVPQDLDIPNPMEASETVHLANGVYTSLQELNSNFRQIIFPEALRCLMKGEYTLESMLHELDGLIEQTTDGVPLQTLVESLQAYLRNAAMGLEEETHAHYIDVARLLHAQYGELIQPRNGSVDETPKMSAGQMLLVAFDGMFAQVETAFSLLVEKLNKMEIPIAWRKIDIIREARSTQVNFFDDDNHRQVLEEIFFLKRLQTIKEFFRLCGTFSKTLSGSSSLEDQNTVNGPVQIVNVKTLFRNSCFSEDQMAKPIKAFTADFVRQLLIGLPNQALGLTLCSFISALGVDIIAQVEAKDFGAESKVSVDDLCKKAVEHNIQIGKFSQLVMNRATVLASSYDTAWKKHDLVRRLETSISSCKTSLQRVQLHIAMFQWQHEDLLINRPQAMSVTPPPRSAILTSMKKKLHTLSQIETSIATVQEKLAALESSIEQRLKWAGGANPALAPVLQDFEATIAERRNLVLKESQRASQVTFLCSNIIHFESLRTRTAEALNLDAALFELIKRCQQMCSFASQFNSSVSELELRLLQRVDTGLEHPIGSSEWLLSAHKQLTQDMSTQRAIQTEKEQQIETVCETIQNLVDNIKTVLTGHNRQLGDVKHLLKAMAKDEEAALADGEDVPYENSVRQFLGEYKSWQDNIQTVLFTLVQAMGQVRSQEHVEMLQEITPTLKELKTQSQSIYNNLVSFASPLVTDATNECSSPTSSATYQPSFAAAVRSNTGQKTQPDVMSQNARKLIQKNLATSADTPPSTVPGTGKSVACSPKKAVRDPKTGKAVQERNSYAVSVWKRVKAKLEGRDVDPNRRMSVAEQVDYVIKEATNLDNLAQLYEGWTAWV

Q: What does the source list for `Cc1c(-c2nccc3[nH]c(=O)c(-c4nc5cnc(Cl)cc5[nH]4)cc23)c(C2CC2)nn1CC(F)F` [Example 93, 3-(6-chloro-1H-imidazo[4,5-c]pyridin-2-yl)-5-[3-cyclopropyl-1-(2,2-difluoroethyl)-5-methyl-1H-pyrazol-4-yl]-1,6-naphthyridin-2(1H)-one]?
A: IC50 (human SMG1 enzyme): 1.2 nM; EC50 [1]: 81 nM

Q: How did the IC50 (human SMG1 enzyme) turn out when `Cc1c(-c2nccc3[nH]c(=O)c(-c4nc5cnc(Cl)cc5[nH]4)cc23)c(C(F)F)nn1C(C)C` [Example 94, 3-(6-chloro-1H-imidazo[4,5-c]pyridin-2-yl)-5-[3-(difluoromethyl)-5-methyl-1-(propan-2-yl)-1H-pyrazol-4-yl]-1,6-naphthyridin-2(1H)-one] was run?
A: 1.5 nM

Q: And the EC50 [1]?
A: 60 nM

Q: Which results are given for `O=c1[nH]c2ccnc(-c3cnn4c3OCCC4)c2cc1-c1nc2cnc(Cl)cc2[nH]1` [Example 95, 3-(6-chloro-1H-imidazo[4,5-c]pyridin-2-yl)-5-(6,7-dihydro-5H-pyrazolo[5,1-b][1,3]oxazin-3-yl)-1,6-naphthyridin-2(1H)-one]?
A: IC50 (human SMG1 enzyme): 1 nM; EC50 [1]: 82 nM

Q: Which results are given for `O=C1Nc2ccnc(-c3ccccc3Cl)c2CN1c1nc2cnc(Cl)cc2[nH]1` [Example 102, 3-(6-chloro-1H-imidazo[4,5-c]pyridin-2-yl)-5-(2-chlorophenyl)-3,4-dihydropyrido[4,3-d]pyrimidin-2(1H)-one]?
A: IC50 (human SMG1 enzyme): 2.8 nM; EC50 [1]: 76 nM

Q: What does the source list for `COc1ccccc1-c1nccc2c1CN(c1nc3cnc(Cl)cc3[nH]1)C(=O)N2` [Example 103, 3-(6-chloro-1H-imidazo[4,5-c]pyridin-2-yl)-5-(2-methoxyphenyl)-3,4-dihydropyrido[4,3-d]pyrimidin-2(1H)-one]?
A: IC50 (human SMG1 enzyme): 3.3 nM; EC50 [1]: 71 nM

Q: Which results are given for `O=c1[nH]c2ccnc(C3=CCCN(S(=O)(=O)C4CC4)C3)c2cc1-c1nc2cnc(Cl)cc2[nH]1` [Example 104, 3-(6-chloro-1H-imidazo[4,5-c]pyridin-2-yl)-5-[1-(cyclopropylsulfonyl)-1,2,5,6-tetrahydropyridin-3-yl]-1,6-naphthyridin-2(1H)-one]?
A: IC50 (human SMG1 enzyme): 0.79 nM; EC50 [1]: 75 nM

Q: `O=C(C1CC1)N1CCC=C(c2nccc3[nH]c(=O)c(-c4nc5cnc(Cl)cc5[nH]4)cc23)C1` [Example 105, 3-(6-chloro-1H-imidazo[4,5-c]pyridin-2-yl)-5-[1-(cyclopropylcarbonyl)-1,2,5,6-tetrahydropyridin-3-yl]-1,6-naphthyridin-2(1H)-one] was tested. Which IC50 (human SMG1 enzyme) did it give?
A: 1.5 nM

Q: And the EC50 [1]?
A: 59 nM

Q: What does the source list for `O=c1[nH]c2ccnc(C3CCCCN(S(=O)(=O)c4ccccc4)C3)c2cc1-c1nc2cnc(Cl)cc2[nH]1` (stereo not shown) [Example 106, 3-(6-chloro-1H-imidazo[4,5-c]pyridin-2-yl)-5-[1-(phenylsulfonyl)azepan-3-yl]-1,6-naphthyridin-2(1H)-one]?
A: IC50 (human SMG1 enzyme): 2.5 nM; EC50 [1]: 87 nM

Q: Which results are given for `CN1CCCN(C)c2nc(Cl)cc3[nH]c(nc23)-c2cc3c(nccc3[nH]c2=O)-c2ccc(cc2F)C1=O` [Example 107, 7-Chloro-18-fluoro-10,14-dimethyl-3,8,10,14,21,25,31-heptaazahexacyclo[18.6.2.2^16,19.1^2,5.0^4,9.0^24,28]hentriacont-1(27),2,4,6,8,16,18,20(28),21,23,29-undecaen-15,26-dione]?
A: IC50 (human SMG1 enzyme): 0.64 nM; EC50 [1]: 30 nM

Q: With `Cc1c2cccc1-c1nccc3[nH]c(=O)c(cc13)-c1nc3c(nc(Cl)cc3[nH]1)N(C)CCCN(C)C2=O` [Example 108, 7-chloro-10,14,30-trimethyl-3,8,10,14,22,26,31-heptaazahexacyclo[19.6.2.1^2,5.1^16,20.0^4,9.0^25,29]hentriacont-1(28),2,4,6,8,16(30),17,19,21(29),22,24-undecaen-15,27-dione] as the compound, how does the IC50 (human SMG1 enzyme) read?
A: 1 nM

Q: What about the EC50 [1] of the same compound?
A: 2 nM

Q: With `Cc1cc2ccc1-c1nccc3[nH]c(=O)c(cc13)-c1nc3c(nc(Cl)cc3[nH]1)N(C)CCC(=O)N(C)C2` [Example 109, 7-chloro-10,14,18-trimethyl-3,8,10,14,21,25,31-heptaazahexacyclo[18.6.2.2^16,19.1^2,5.0^4,9.0^24,28]hentriacont-1(27),2,4,6,8,16,18,20(28),21,23,29-undecaen-13,26-dione] as the compound, how does the IC50 (human SMG1 enzyme) read?
A: 2.3 nM

Q: And the EC50 [1]?
A: 165 nM

Q: How did the IC50 (human SMG1 enzyme) turn out when `Cc1c2cccc1-c1nccc3[nH]c(=O)c(cc13)-c1nc3c(nc(Cl)cc3[nH]1)N1CCCN(CC1)C(=O)CO2` [Example 110, 7-chloro-32-methyl-17-oxa-3,8,10,14,24,28,35-heptaazaheptacyclo[21.6.2.2^10,14.1^2,5.1^18,22.0^4,9.0^27,31]pentatriacont-1(30),2,4,6,8,18(32),19,21,23(31),24,26-undecaen-15,29-dione] was run?
A: 1.3 nM

Q: What about the EC50 [1] of the same compound?
A: 1.1 nM

Q: How did the IC50 (human SMG1 enzyme) turn out when `Cc1c2cccc1-c1nccc3[nH]c(=O)c(cc13)-c1nc3c(nc(Cl)cc3[nH]1)NCC(C)(C)NC(=O)CO2` [Example 111, 7-chloro-12,12,31-trimethyl-16-oxa-3,8,10,13,23,27,32-heptaazahexacyclo[20.6.2.1^2,5.1^17,21.0^4,9.0^26,30]dotriacont-1(29),2,4,6,8,17(31),18,20,22(30),23,25-undecaen-14,28-dione] was run?
A: 1.6 nM

Q: And the EC50 [1]?
A: 8.4 nM

Q: How did the IC50 (human SMG1 enzyme) turn out when `O=C1CS(=O)(=O)c2cccc(c2)-c2nccc3[nH]c(=O)c(cc23)-c2nc3c(nc(Cl)cc3[nH]2)N2CCCN1CC2` [Example 112, 7-chloro-17-thia-3,8,10,14,24,28,35-heptaazaheptacyclo[21.6.2.2^10,14.1^2,5.1^18,22.0^4,9.0^27,31]pentatriacont-1(30)2,4,6,8,18(32),19,21,23(31),24,26-undecaen-15,29-dione17,17-dioxide] was run?
A: 1.3 nM

Q: And the EC50 [1]?
A: 510 nM

Q: Which results are given for `Cc1nn2c(C)c1-c1nccc3[nH]c(=O)c(cc13)-c1nc3c(nc(Cl)cc3[nH]1)N(C)CCCCN(C)C(=O)C2` [Example 113, 7-chloro-10,15,20,31-tetramethyl-3,8,10,15,18,19,23,27,32-nonaazahexacyclo[20.6.2.1^2,5.1^18,21.0^4,9 .0^26,30]dotriacont-1(29),2,4,6,8,19,21(31),22(30),23,25-decaen-16,28-dione]?
A: IC50 (human SMG1 enzyme): 0.38 nM; EC50 [1]: 8.3 nM

Q: With `Cc1nn2c(C)c1-c1nccc3[nH]c(=O)c(cc13)-c1nc3c(nc(Cl)cc3[nH]1)N(C)CCCN(C)C(=O)C2C` (stereo not shown) [Example 114, 7-chloro-10,14,16,19,30-pentamethyl-3,8,10,14,17,18,22,26,31-nonaazahexacyclo[19.6.2.1^2,5.1^17,20.0^4,9.0^25,29]hentriacont-1(28),2,4,6,8,18,20(30),21(29),22,24-decaen-15,27-dione] as the compound, how does the IC50 (human SMG1 enzyme) read?
A: 1.1 nM

Q: And the EC50 [1]?
A: 3.2 nM

Q: With `Cc1nn2c(C)c1-c1nccc3[nH]c(=O)c(cc13)-c1nc3c(nc(Cl)cc3[nH]1)NCC(C)(C)CNC(=O)C2` [Example 115, 7-chloro-12,12,19,30-tetramethyl-3,8,10,14,17,18,22,26,31-nonaazahexacyclo[19.6.2.1^2,5.1^17,20.0^4,9.0^25,29]hentriacont-1(28),2,4,6,8,18,20(30),21(29),22,24-decaen-15,27-dione] as the compound, how does the IC50 (human SMG1 enzyme) read?
A: 0.64 nM

Q: And the EC50 [1]?
A: 58 nM

Source: patent US20260109715A1, “IMIDAZOPYRIDINE DERIVATIVES WITH BICYCLIC STRUCTURE” (PUBLIC UNIVERSITY CORPORATION YOKOHAMA CITY UNIVERSITY, priority 2022, published 2026)
